Tests used:
[1] = target: Beta5 (Homo sapiens, UniProt P20618+P28074); test: Determination of Beta5 activity (fluorescence intensity assay, Suc-LLVY-AMC); assay type: biochemical; conditions: for IC50: purified human constitutive proteasome
Experimental: Determination of Beta5 Activity:
Measurement of Beta5 inhibition is performed in 384 well format based on fluorescence intensity assay.
(§1) Purified human constitutive proteasome (1.25 nM) and serial diluted compounds in DMSO (range of concentrations from 30 μM to 15 μM) or controls are incubated for 20 minutes or 120 minutes (long incubation) at 25° C. in assay buffer containing 50 mM Tris pH 7.4, 0.03% SDS, 1 mM EDTA and 1% DMSO. The reaction is initiated by the addition of the fluorogenic peptide substrate, Suc-LLVY-AMC (Bachem 1-1395), at a concentration of 40 μM. After 60 minutes of incubation at 37° C., fluorescence intensity is measured at λex=350 nm and λem=450 nm with a fluorescence reader (Perkin Elmer Envision reader or equivalent).
(§2) Unless indicated otherwise the results are obtained after incubation for 20 minutes.

[2] = target: LMP7 (Homo sapiens, UniProt P20618+P28062); test: Determination of LMP7 activity (fluorescence intensity assay, Suc-LLVY-AMC); assay type: biochemical; conditions: purified human immunoproteasome
Experimental: Determination of LMP7 Activity:
Measurement of LMP7 inhibition is performed in 384 well format based on fluorescence intensity assay.
as §1, with “immunoproteasome (0.25” for “constitutive proteasome (1.25”, “pM)” for “μM)”
as §2

| Compound | Selectivity LMP7 vs Beta5 ([1]; long incubation (120 min)) | IC50 ([1]; long incubation (120 min)) [µM] | IC50 ([2]; long incubation (120 min)) [µM] | Selectivity LMP7 vs Beta5 ([1]; incubation for 20 minutes) | IC50 ([1]; incubation for 20 minutes) [µM] | IC50 ([2]; incubation for 20 minutes) [µM] |
| --- | --- | --- | --- | --- | --- | --- |
| O=C(CCN1CCCC1=O)N[C@@H](C[C@@H]1COc2ccccc21)B(O)O [Compound 39, [(1R)-2-[(3S)-2,3-dihydrobenzofuran-3-yl]-1-[3-(2-oxopyrrolidin-1-yl)propanoylamino]ethyl]boronic acid] | +++++ (Selectivity ≥ 70) | 0.5 to 5 | < 0.05 | – | – | – |
| Cc1cccc2c(C[C@H](NC(=O)CCN3C(=O)CCC3(C)C)B(O)O)coc12 [Compound 38, [(1R)-1-[3-(2,2-dimethyl-5-oxo-pyrrolidin-1-yl)propanoylamino]-2-(7-methylbenzofuran-3-yl)ethyl]boronic acid] | +++++ (Selectivity ≥ 70) | 0.5 to 5 | < 0.05 | – | – | – |
| Cc1ccc(C[C@H](NC(=O)CCN2CCC(C)(C)C2=O)B(O)O)cc1 [Compound 17, [(1R)-1-[3-(3,3-dimethyl-2-oxo-pyrrolidin-1-yl)propanoylamino]-2-(p-tolyl)ethyl]boronic acid] | – | – | – | ++ (10 ≤ Selectivity < 30) | 0.05 to 0.5 | < 0.05 |
| O=C(CCN1CCCOC1=O)N[C@@H](Cc1coc2ccccc12)B(O)O [Compound 30, [(1R)-2-(benzofuran-3-yl)-1-[3-(2-oxo-1,3-oxazinan-3-yl)propanoylamino]ethyl]boronic acid] | – | – | – | +++ (30 ≤ Selectivity < 50) | 0.05 to 0.5 | < 0.05 |
| Cc1ccc(C[C@H](NC(=O)CCN2CCCCC2=O)B(O)O)cc1 [Compound 9, [(1R)-1-[3-(2-oxo-1-piperidyl)propanoylamino]-2-(p-tolyl)ethyl]boronic acid] | – | – | – | ++ (10 ≤ Selectivity < 30) | 0.5 to 5 | < 0.05 |
| COCc1ccc(C[C@H](NC(=O)CCN2CCCC2=O)B(O)O)cc1 [Compound 20, [(1R)-2-[4-(methoxymethyl)phenyl]-1-[3-(2-oxopyrrolidin-1-yl)propanoylamino]ethyl]boronic acid] | – | – | – | ++ (10 ≤ Selectivity < 30) | 0.5 to 5 | 0.05 to 0.5 |
| CCc1cccc(C[C@H](NC(=O)CCCN2CCOC2=O)B(O)O)c1 [Compound 1, [(1R)-2-(3-ethylphenyl)-1-[4-(2-oxooxazolidin-3-yl)butanoylamino]-ethyl]boronic acid] | – | – | – | ++ (10 ≤ Selectivity < 30) | > 5 | 0.05 to 0.5 |
| O=C(CCN1CCCCC1=O)N[C@@H](Cc1ccc2ccccc2c1)B(O)O [Compound 7, [(1R)-2-(2-naphthyl)-1-[3-(2-oxo-1-piperidyl)propanoylamino]ethyl]-boronic acid] | – | – | – | ++ (10 ≤ Selectivity < 30) | 0.05 to 0.5 | < 0.05 |
| O=C(CCN1CC(c2ccccc2)CC1=O)N[C@@H](Cc1ccccc1)B(O)O (stereo partly drawn) [Compound 12, [(1R)-1-[3-(2-oxo-4-phenyl-pyrrolidin-1-yl)propanoylamino]-2-phenyl-ethyl]boronic acid] | – | – | – | ++ (10 ≤ Selectivity < 30) | 0.05 to 0.5 | < 0.05 |
| Cc1cccc2c1OC[C@H]2C[C@H](NC(=O)CCN1CCCCC1=O)B(O)O [Compound 40, [(1R)-2-[(3S)-7-methyl-2,3-dihydrobenzofuran-3-yl]-1-[3-(2-oxo-1-piperidyl)propanoylamino]ethyl]boronic acid] | +++++ (Selectivity ≥ 70) | > 5 | < 0.05 | – | – | – |
| Cc1ccc(C[C@H](NC(=O)CC[C@@H]2NC(=O)NC2=O)B(O)O)cc1 [Compound 23, [(1R)-1-[3-[(4S)-2,5-dioxoimidazolidin-4-yl]propanoylamino]-2-(p-tolyl)ethyl]boronic acid] | – | – | – | ++ (10 ≤ Selectivity < 30) | 0.5 to 5 | < 0.05 |
| Cc1ccc(C[C@H](NC(=O)CCN2CCCC2=O)B(O)O)cc1C [Compound 16, [(1R)-2-(3,4-dimethylphenyl)-1-[3-(2-oxopyrrolidin-1-yl)propanoylamino]ethyl]boronic acid] | – | – | – | +++++ (Selectivity ≥ 70) | 0.5 to 5 | < 0.05 |
| O=C(CN1C(=O)CSC1=O)N[C@@H](Cc1coc2ccccc12)B(O)O [Compound 33, [(1R)-2-(benzofuran-3-yl)-1-[[2-(2,4-dioxothiazolidin-3-yl)acetyl]-amino]ethyl]boronic acid] | – | – | – | ++ (10 ≤ Selectivity < 30) | 0.05 to 0.5 | < 0.05 |
| Cc1ccc(C[C@H](NC(=O)CN2CCCC2=O)B(O)O)cc1 [Compound 21, [(1R)-1-[[2-(2-oxopyrrolidin-1-yl)acetyl]amino]-2-(p-tolyl)ethyl]boronic acid] | – | – | – | ++ (10 ≤ Selectivity < 30) | 0.5 to 5 | 0.05 to 0.5 |
| O=C(CCN1CCCC1=O)N[C@@H](Cc1ccc2ccccc2c1)B(O)O [Compound 6, [(1R)-2-(2-naphthyl)-1-[3-(2-oxopyrrolidin-1-yl)propanoylamino]-ethyl]boronic acid] | – | – | – | ++ (10 ≤ Selectivity < 30) | 0.05 to 0.5 | < 0.05 |
| O=C(N[C@@H](Cc1coc2ccccc12)B(O)O)C1CCCN1c1ccccc1 (stereo partly drawn) [Compound 37, [(1R)-2-(benzofuran-3-yl)-1-[(1-phenylpyrrolidine-2-carbonyl)amino]ethyl]boronic acid] | – | – | – | +++++ (Selectivity ≥ 70) | 0.5 to 5 | < 0.05 |
| Cc1ccc(C[C@H](NC(=O)CCN2CCCC2=O)B(O)O)cc1 [Compound 4, [(1R)-1-[3-(2-oxopyrrolidin-1-yl)propanoylamino]-2-(p-tolyl)ethyl]-boronic acid] | – | – | – | ++ (10 ≤ Selectivity < 30) | 0.05 to 0.5 | < 0.05 |
| O=C(CCN1CCCC1=O)N[C@H](Cc1ccccc1)B(O)O [Compound 2, [(1S)-1-[3-(2-oxopyrrolidin-1-yl)propaqanoylamino]-2-phenyl-ethyl]-boronic acid] | – | – | – | +++ (30 ≤ Selectivity < 50) | 0.5 to 5 | < 0.05 |
| Cc1ccc(C[C@H](NC(=O)CCN2CCCCS2(=O)=O)B(O)O)cc1 [Compound 22, [(1R)-1-[3-(1,1-dioxothiazinan-2-yl)propanoylamino]-2-(p-tolyl)ethyl]-boronic acid] | – | – | – | ++ (10 ≤ Selectivity < 30) | 0.05 to 0.5 | < 0.05 |
| CC1(C)CCC(=O)N1CCC(=O)N[C@@H](Cc1coc2ccccc12)B(O)O [Compound 27, [(1R)-2-(benzofuran-3-yl)-1-[3-(2,2-dimethyl-5-oxo-pyrrolidin-1-yl)propanoylamino]ethyl]boronic acid] | – | – | – | +++++ (Selectivity ≥ 70) | 0.5 to 5 | < 0.05 |
| O=C(CCN1CCCCC1=O)N[C@@H](Cc1coc2ccccc12)B(O)O [Compound 24, [(1R)-2-(benzofuran-3-yl)-1-[3-(2-oxo-1-piperidyl)propanoylamino]-ethyl]boronic acid] | – | – | – | +++ (30 ≤ Selectivity < 50) | 0.05 to 0.5 | < 0.05 |
| CN1CCN(CCC(=O)N[C@@H](Cc2coc3ccccc23)B(O)O)C(=O)C1 [Compound 35, [(1R)-2-(benzofuran-3-yl)-1-[3-(4-methyl-2-oxo-piperazin-1-yl)propanoylamino]ethyl]boronic acid] | – | – | – | ++ (10 ≤ Selectivity < 30) | 0.05 to 0.5 | < 0.05 |
| Cc1ccc(C[C@H](NC(=O)C2CCC(=O)N2c2ccccc2)B(O)O)c(C)c1 (stereo partly drawn) [Compound 36, [(1R)-2-(2,4-dimethylphenyl)-1-[(5-oxo-1-phenyl-pyrrolidine-2-carbonyl)amino]-ethyl]boronic acid] | – | – | – | +++ (30 ≤ Selectivity < 50) | 0.5 to 5 | 0.05 to 0.5 |
| O=C(CCN1CCCCS1(=O)=O)N[C@@H](Cc1coc2ccccc12)B(O)O [Compound 26, [(1R)-2-(benzofuran-3-yl)-1-[3-(1,1-dioxothiazinan-2-yl)propanoylamino]ethyl]boronic acid] | – | – | – | +++ (30 ≤ Selectivity < 50) | 0.05 to 0.5 | < 0.05 |
| O=C(CCN1CCCCC1=O)N[C@@H](Cc1cccc2ccccc12)B(O)O [Compound 11, [(1R)-2-(1-naphthyl)-1-[3-(2-oxo-1-piperidyl)propanoylamino]ethyl]-boronic acid] | – | – | – | +++ (30 ≤ Selectivity < 50) | 0.5 to 5 | 0.05 to 0.5 |
| CCN1CCN(CCC(=O)N[C@@H](Cc2coc3ccccc23)B(O)O)C(=O)C1=O [Compound 34, [(1R)-2-(benzofuran-3-yl)-1-[3-(4-ethyl-2,3-dioxo-piperazin-1-yl)propanoylamino]ethyl]boronic acid] | – | – | – | ++ (10 ≤ Selectivity < 30) | 0.05 to 0.5 | < 0.05 |

— patent US10640520B2, “Boronic acid derivatives” (MERCK PATENT GMBH, priority 2014, dated 2020)
